Reference: patent US20110230481A2, “DERIVATIVES OF TETRABROMOBENZIMIDAZOLE, A PROCESS FOR THE PREPARATION THEREOF, A PHARMACEUTICAL COMPOSITION COMPRISING THE SAME, A METHOD OF USING THE SAME, A METHOD FOR MODULATING OR REGULATING SERINE/THREONINE KINASES, AND SERINE/THREONINE KINASES MODULATING AGENT” (SELVITA S.A., priority 2009, published 2011)

What was measured:
Experiment in all cases: KINOMEscan Max
Assay type in all cases: binding
ACVR1B = ACVR1B (Homo sapiens, UniProt P36896)
Method in brief: (§1)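 Immobilized active-site directed ligand captures DNA-tagged kinase unless test compound competes it off; captured kinase is then quantified by qPCR of the DNA tag.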

EGFR(E746-A750del) = target: T1, EGFR(E746-A750del) (Homo sapiens, UniProt P00533, DEL746-750); conditions: 1 μM
T1 construct: purchased Ambit (KINOMEscan Max service)
Method in brief: as §1

PDGFRA = target: T2, PDGFRA (Homo sapiens, UniProt P16234)
T2 construct: DNA tag (qPCR read-out)
Method in brief: as §1

GCN2(Kin.Dom.S808G) = target: T3, GCN2(Kin.Dom.S808G) (Homo sapiens, UniProt Q9P2K8, S808G)
T3 construct: GCN2(Kin.Dom.S808G)
Method in brief: as §1

NEK7 = target: T4, NEK7 (Homo sapiens, UniProt Q8TDX7)
T4 construct: DNA tag (qPCR read-out)
Method in brief: as §1

MYLK2 = target: T5, MYLK2 (Homo sapiens, UniProt Q9H1R3)
T5 construct: purchased Ambit (KINOMEscan Max service)
Method in brief: as §1

BIKE = target: T6, BIKE (Homo sapiens, UniProt Q9NSY1)
T6 construct: purchased Ambit (KINOMEscan Max service)
T6 sequence (Q9NSY1 whole entry): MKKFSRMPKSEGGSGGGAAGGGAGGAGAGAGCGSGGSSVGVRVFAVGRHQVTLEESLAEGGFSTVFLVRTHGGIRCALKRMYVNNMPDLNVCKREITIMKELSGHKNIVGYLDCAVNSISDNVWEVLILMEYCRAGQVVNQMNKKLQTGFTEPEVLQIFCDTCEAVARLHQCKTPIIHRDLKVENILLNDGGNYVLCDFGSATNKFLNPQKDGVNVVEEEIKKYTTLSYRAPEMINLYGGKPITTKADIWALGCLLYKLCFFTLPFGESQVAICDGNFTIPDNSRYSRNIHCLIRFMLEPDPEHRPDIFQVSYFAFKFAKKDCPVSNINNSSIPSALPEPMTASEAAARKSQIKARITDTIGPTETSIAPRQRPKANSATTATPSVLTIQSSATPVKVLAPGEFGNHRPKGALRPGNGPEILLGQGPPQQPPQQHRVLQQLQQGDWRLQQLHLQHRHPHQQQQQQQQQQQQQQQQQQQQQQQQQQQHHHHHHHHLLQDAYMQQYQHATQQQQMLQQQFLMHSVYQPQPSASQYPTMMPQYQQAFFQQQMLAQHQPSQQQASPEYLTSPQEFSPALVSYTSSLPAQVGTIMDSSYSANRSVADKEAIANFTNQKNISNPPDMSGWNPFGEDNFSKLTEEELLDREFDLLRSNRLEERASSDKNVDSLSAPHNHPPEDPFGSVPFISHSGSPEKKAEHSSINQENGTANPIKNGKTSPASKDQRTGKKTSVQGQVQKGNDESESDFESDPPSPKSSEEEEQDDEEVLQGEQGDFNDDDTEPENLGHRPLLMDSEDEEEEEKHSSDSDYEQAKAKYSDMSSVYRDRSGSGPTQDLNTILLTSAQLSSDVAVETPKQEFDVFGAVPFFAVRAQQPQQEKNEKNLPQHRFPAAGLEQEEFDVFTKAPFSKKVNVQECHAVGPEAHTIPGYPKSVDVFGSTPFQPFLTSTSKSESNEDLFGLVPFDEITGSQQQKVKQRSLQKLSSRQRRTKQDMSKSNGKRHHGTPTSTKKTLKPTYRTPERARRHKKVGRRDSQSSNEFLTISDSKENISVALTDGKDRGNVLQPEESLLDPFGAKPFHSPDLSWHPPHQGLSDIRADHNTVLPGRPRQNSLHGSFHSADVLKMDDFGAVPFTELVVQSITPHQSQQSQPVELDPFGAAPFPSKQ
Method in brief: as §1

IGF1R = target: T7, IGF1R (Homo sapiens, UniProt P08069)
T7 construct: purchased Ambit Kinomescan (contract panel, KINOMEscan Max)
Method in brief: as §1

MKNK1 = MKNK1 (Homo sapiens, UniProt Q9BUB5)
Method in brief: as §1

SBK1 = target: T8, SBK1 (Homo sapiens, UniProt Q52WX2)
T8 construct: purchased Ambit (KINOMEscan Max service)
Method in brief: as §1

PRKR = PRKR (Homo sapiens, UniProt P19525); conditions: 1 μM
Method in brief: as §1

MLK2 = MLK2 (Homo sapiens, UniProt Q02779)
Method in brief: as §1

PLK2 = target: T9, PLK2 (Homo sapiens, UniProt Q9NYY3); conditions: 1 μM
T9 construct: DNA tag (qPCR read-out)
Method in brief: as §1

PIP5K1C = PIP5K1C (Homo sapiens, UniProt O60331); conditions: 1 μM
Method in brief: as §1

MARK3 = target: T10, MARK3 (Homo sapiens, UniProt P27448)
T10 construct: purchased Ambit Kinomescan (contract panel)
Method in brief: as §1

CASK = CASK (Homo sapiens, UniProt O14936)
Sequence of CASK (O14936 whole entry): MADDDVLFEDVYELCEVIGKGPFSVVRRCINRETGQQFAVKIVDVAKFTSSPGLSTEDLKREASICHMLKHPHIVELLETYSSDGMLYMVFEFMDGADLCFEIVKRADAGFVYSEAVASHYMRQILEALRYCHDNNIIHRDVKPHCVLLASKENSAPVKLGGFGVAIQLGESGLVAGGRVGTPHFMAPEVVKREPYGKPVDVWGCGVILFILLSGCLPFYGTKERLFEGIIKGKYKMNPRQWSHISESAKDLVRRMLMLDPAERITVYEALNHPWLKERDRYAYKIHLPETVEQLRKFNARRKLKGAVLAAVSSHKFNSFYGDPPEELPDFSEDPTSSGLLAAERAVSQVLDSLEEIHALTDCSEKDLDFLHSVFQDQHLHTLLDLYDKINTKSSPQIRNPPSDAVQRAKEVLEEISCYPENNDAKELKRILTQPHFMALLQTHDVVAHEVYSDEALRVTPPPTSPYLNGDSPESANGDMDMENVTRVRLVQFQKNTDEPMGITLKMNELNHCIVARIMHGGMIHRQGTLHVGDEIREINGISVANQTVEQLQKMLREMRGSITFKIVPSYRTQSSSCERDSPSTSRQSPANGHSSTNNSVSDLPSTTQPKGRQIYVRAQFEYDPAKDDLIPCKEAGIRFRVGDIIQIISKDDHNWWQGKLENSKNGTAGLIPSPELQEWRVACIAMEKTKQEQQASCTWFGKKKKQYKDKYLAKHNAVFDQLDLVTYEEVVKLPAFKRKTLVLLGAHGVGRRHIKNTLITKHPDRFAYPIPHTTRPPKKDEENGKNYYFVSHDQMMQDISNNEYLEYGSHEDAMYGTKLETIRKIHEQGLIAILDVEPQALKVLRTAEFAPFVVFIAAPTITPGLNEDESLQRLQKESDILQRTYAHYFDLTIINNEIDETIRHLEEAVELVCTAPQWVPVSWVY
Method in brief: as §1

AURKB = AURKB (Homo sapiens, UniProt Q96GD4)
Method in brief: as §1

CSNK1E = target: T11, CSNK1E (Homo sapiens, UniProt P49674)
T11 construct: DNA tag (qPCR read-out)
Method in brief: as §1

TGFBR1 = target: T12, TGFBR1 (Homo sapiens, UniProt P36897)
T12 construct: purchased Ambit Kinomescan (contract screening service)
Method in brief: as §1

HIPK1 = target: T13, HIPK1 (Homo sapiens, UniProt Q86Z02)
T13 construct: DNA tag (qPCR read-out); purchased Ambit Kinomescan
Method in brief: as §1

MELK = target: T14, MELK (Homo sapiens, UniProt Q14680)
T14 construct: purchased Ambit (KINOMEscan Max service)
T14 sequence (Q14680 whole entry): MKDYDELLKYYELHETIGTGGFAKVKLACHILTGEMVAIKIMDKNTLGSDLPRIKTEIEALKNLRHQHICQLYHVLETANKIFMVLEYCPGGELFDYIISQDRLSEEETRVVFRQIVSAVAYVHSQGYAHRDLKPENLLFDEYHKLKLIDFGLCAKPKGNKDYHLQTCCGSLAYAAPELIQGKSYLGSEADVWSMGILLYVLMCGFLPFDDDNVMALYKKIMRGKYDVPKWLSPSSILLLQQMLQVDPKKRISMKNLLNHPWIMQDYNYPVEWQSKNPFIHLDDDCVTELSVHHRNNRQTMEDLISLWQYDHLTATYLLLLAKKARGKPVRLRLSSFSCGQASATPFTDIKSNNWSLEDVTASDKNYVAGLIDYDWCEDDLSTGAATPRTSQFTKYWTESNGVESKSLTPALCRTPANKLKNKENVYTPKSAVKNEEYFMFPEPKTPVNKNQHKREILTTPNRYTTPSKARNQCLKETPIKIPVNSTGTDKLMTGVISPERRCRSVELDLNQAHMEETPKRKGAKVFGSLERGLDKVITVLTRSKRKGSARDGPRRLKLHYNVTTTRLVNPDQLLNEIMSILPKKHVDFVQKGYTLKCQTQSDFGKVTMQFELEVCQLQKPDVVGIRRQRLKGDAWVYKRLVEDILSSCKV
Method in brief: as §1

PKN2 = target: T15, PKN2 (Homo sapiens, UniProt Q16513)
T15 construct: purchased Ambit (KINOMEscan Max service)
Method in brief: as §1

[1] = target: T16, ABL1(F317I)-nonphosphorylated (Homo sapiens, UniProt P00519, F317I)
T16 construct: purchased Ambit (KINOMEscan Max service)
Method in brief: as §1

EPHA1 = target: T17, EPHA1 (Homo sapiens, UniProt P21709)
T17 construct: purchased Ambit (KINOMEscan Max panel service)
Method in brief: as §1

STK36 = target: T18, STK36 (Homo sapiens, UniProt Q9NRP7)
T18 construct: DNA tag (qPCR read-out)
Method in brief: as §1

EPHB4 = target: T19, EPHB4 (Homo sapiens, UniProt P54760)
T19 construct: purchased Ambit (KINOMEscan Max panel service)
Method in brief: as §1

[2] = target: T20, RSK3(Kin.Dom.1-N-terminal) (Homo sapiens, UniProt Q15349)
T20 construct: RSK3(Kin.Dom.1-N-terminal); DNA tag (qPCR read-out)
Method in brief: as §1

FYN = target: T21, FYN (Homo sapiens, UniProt P06241)
T21 construct: purchased Ambit Kinomescan (contract panel, KINOMEscan Max)
Method in brief: as §1

EPHA3 = target: T22, EPHA3 (Homo sapiens, UniProt P29320)
T22 construct: DNA tag (qPCR read-out)
Method in brief: as §1

DMPK2 = DMPK2 (Homo sapiens, UniProt Q6DT37)
Sequence of DMPK2 (Q6DT37 whole entry): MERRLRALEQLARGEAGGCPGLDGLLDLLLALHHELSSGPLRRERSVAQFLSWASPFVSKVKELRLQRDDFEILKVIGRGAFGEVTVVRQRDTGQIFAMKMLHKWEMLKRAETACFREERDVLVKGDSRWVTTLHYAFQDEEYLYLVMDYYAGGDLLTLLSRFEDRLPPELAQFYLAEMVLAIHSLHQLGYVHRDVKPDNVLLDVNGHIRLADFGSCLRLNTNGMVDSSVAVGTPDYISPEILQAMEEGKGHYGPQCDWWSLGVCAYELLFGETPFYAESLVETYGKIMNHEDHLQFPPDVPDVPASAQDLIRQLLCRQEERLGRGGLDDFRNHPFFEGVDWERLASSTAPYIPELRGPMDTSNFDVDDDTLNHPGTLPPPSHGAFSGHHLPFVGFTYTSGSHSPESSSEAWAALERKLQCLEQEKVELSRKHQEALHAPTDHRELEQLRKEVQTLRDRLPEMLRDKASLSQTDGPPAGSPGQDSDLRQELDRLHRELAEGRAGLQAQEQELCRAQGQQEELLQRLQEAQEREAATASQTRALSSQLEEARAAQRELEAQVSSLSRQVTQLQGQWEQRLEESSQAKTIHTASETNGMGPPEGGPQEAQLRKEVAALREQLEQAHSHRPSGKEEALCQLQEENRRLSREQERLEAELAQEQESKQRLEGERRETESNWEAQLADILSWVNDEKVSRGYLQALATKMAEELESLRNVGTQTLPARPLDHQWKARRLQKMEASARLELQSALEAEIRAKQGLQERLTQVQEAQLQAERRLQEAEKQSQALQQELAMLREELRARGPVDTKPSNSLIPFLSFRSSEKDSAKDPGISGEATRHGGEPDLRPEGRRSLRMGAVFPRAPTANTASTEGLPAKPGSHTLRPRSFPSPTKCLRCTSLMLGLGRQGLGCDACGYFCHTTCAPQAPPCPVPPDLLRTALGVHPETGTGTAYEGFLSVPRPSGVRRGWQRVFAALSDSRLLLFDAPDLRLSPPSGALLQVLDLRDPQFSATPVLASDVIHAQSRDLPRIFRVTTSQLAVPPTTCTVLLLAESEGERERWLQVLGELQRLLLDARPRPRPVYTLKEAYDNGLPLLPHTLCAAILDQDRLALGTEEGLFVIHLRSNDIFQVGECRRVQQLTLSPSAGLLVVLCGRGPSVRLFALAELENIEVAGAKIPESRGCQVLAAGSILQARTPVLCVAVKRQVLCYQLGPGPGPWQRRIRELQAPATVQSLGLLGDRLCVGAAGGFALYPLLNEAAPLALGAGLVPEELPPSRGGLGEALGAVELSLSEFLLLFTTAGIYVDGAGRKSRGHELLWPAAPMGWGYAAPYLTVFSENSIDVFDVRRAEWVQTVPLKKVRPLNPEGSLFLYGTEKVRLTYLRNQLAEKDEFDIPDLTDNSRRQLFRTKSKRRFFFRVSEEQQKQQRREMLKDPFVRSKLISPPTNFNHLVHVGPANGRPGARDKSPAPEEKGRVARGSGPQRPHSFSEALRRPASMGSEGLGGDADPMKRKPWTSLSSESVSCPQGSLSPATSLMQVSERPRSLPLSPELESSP
Method in brief: as §1

[3] = target: ABL1(H396P)-phosphorylated (Homo sapiens, UniProt P00519, H396P)
Method in brief: as §1

MEK1 = target: T23, MEK1 (Homo sapiens, UniProt Q02750)
T23 construct: purchased Ambit Kinomescan (contract panel)
Method in brief: as §1

MAP3K1 = target: T24, MAP3K1 (Homo sapiens, UniProt Q13233)
T24 construct: purchased Ambit Kinomescan (contract panel)
Method in brief: as §1

BRSK2 = target: T25, BRSK2 (Homo sapiens, UniProt Q8IWQ3)
T25 construct: DNA tag (qPCR read-out)
T25 sequence (Q8IWQ3 whole entry): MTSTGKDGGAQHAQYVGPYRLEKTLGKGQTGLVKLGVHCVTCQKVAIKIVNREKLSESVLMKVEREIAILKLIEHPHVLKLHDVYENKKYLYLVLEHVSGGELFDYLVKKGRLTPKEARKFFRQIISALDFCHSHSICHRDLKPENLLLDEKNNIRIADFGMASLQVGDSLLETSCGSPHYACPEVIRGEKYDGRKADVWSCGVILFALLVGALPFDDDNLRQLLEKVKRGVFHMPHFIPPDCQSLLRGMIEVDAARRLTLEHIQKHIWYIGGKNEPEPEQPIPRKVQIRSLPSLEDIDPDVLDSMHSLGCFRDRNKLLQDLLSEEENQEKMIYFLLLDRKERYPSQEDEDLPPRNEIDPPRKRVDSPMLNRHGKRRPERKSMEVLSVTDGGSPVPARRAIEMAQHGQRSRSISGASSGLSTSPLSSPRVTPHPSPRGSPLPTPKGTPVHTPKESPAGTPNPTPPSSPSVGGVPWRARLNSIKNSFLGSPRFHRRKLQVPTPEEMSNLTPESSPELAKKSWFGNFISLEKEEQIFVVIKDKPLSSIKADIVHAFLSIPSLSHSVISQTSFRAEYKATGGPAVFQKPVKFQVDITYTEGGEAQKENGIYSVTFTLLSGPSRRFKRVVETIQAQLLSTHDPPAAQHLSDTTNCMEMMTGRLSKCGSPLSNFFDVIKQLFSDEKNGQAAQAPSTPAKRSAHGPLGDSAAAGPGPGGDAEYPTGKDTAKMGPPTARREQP
Method in brief: as §1

Structure (SMILES): NCCCNc1nc2c(Br)c(Br)c(Br)c(Br)c2[nH]1 [Compound 11, N-(3-aminopropyl)-4,5,6,7-tetrabromo-1H-benzo[d]imidazol-2-amine]
- remaining binding at 1 µM (ACVR1B): 100%
- % binding (EGFR(E746-A750del)): 72%
- remaining binding at 1 µM (PDGFRA): 100%
- remaining binding at 1 µM (GCN2(Kin.Dom.S808G)): 95%
- remaining binding at 1 µM (NEK7): 86%
- remaining binding at 1 µM (MYLK2): 86%
- remaining binding at 1 µM (BIKE): 60%
- remaining binding at 1 µM (IGF1R): 100%
- remaining binding at 1 µM (MKNK1): 100%
- remaining binding at 1 µM (SBK1): 59%
- % binding (PRKR): 91%
- remaining binding at 1 µM (MLK2): 100%
- % binding (PLK2): 31%
- % binding (PIP5K1C): 95%
- remaining binding at 1 µM (MARK3): 100%
- remaining binding at 1 µM (CASK): 94%
- remaining binding at 1 µM (AURKB): 94%
- remaining binding at 1 µM (CSNK1E): 34%
- remaining binding at 1 µM (TGFBR1): 100%
- remaining binding at 1 µM (HIPK1): 2.8%
- remaining binding at 1 µM (MELK): 82%
- remaining binding at 1 µM (PKN2): 80%
- remaining binding at 1 µM [1]: 64%
- remaining binding at 1 µM (EPHA1): 100%
- remaining binding at 1 µM (STK36): 100%
- remaining binding at 1 µM (EPHB4): 100%
- remaining binding at 1 µM [2]: 100%
- remaining binding at 1 µM (FYN): 100%
- remaining binding at 1 µM (EPHA3): 89%
- remaining binding at 1 µM (DMPK2): 96%
- remaining binding at 1 µM [3]: 100%
- remaining binding at 1 µM (MEK1): 100%
- remaining binding at 1 µM (MAP3K1): 100%
- remaining binding at 1 µM (BRSK2): 91%
